# Laboratory results: patent US20240287089A1, “Preparation and Uses of 7-Azaindenoisoquinolines” (Purdue Research Foundation, priority 0001, published 2024)
# Legend:
# [1] = test system: SF-539 (CNS); assay: NCI-60 cytotoxicity assay; type: cell-based; settings: Homo sapiens; SF-539 CNS; 48 h, sulforhodamine B; read-out: Comparative Cytotoxicity GI50, CNS SF-539
# Protocol: (§1) The antiproliferative activities of the indenoisquinoline compounds are determined in the NCI-60 cancer cell lines of the National Cancer Institute Developmental Therapeutics Program (NCI-DTP). […] Cancer cells are incubated with the test compounds at five concentrations ranging from 100 μM to 10 nM for 48 h. After the treated cancer cells are stained with sulforhodamine B dye, the percentage growth is plotted as a function of the common logarithm of the tested compound concentration. […] The approximate average of GI50 values across the entire panel of NCI-60 cancer cell lines for each compound is recorded as the MGM value.
# (§2) NCI-60 Cytotoxicity Assay. Compounds were submitted to the National Cancer Institute Developmental Therapeutic Program to determine their growth-inhibitory potentials in NCI-60 cell lines. All compounds satisfied the pre-screening proceeded into the 5-dose cell viability assay, in which cells were treated for 48 h at 5 dosages ranging from 100 μM to 10 nM.
# [2] = test system: NCI-60 cancer cell lines; assay: NCI-60 cytotoxicity assay, MGM; type: cell-based; settings: Homo sapiens; entire panel of NCI-60 cancer cell lines; read-out: MGM (approximate average of GI50 values across the NCI-60 panel)
# Protocol: as §1, §2
# [3] = test system: DU-145 (Prostate); assay: NCI-60 cytotoxicity assay; type: cell-based, human; settings: Homo sapiens; DU-145 prostate; 48 h, sulforhodamine B; read-out: Comparative Cytotoxicity GI50, Prostate DU-145
# Protocol: as §1, §2
# [4] = test system: MCF7 (Breast); assay: NCI-60 cytotoxicity assay; type: cell-based, human; settings: Homo sapiens; MCF7 breast; 48 h, sulforhodamine B; read-out: Comparative Cytotoxicity GI50, Breast MCE7
# Protocol: as §1, §2
# [5] = test system: UACC-62 (Melanoma); assay: NCI-60 cytotoxicity assay; type: cell-based, human; settings: Homo sapiens; UACC-62 melanoma; 48 h, sulforhodamine B; read-out: Comparative Cytotoxicity GI50, Melanoma UACC-62
# Protocol: as §1, §2
# [6] = test system: OVCAR-3 (Ovarian); assay: NCI-60 cytotoxicity assay; type: cell-based, human; settings: Homo sapiens; OVCAR-3 ovarian; 48 h, sulforhodamine B; read-out: Comparative Cytotoxicity GI50, Ovarian OVCAR-3
# Protocol: as §1, §2
# [7] = test system: HCT-116 (Colon); assay: NCI-60 cytotoxicity assay; type: cell-based, human; settings: Homo sapiens; HCT-116 colon; 48 h, sulforhodamine B; read-out: Comparative Cytotoxicity GI50, Colon HCT-116
# Protocol: as §1, §2
# [8] = test system: HOP-62 (Lung); assay: NCI-60 cytotoxicity assay; type: cell-based, human; settings: Homo sapiens; HOP-62 lung; 48 h, sulforhodamine B; read-out: Comparative Cytotoxicity GI50, Lung HOP-62
# Protocol: as §1, §2
# [9] = test system: SN12C (Renal); assay: NCI-60 cytotoxicity assay; type: cell-based, human; settings: Homo sapiens; SN12C renal; 48 h, sulforhodamine B; read-out: Comparative Cytotoxicity GI50, Renal SN12C
# Protocol: as §1, §2
# [10] = test system: Caco-2 cells; assay: Caco-2 permeability; type: in vitro ADME; settings: for Efflux Ratio / Recovery (%)AP-BL / Recovery (%)BL-AP: Caco-2; for Papp (A→B) / Papp (B→A): Caco-2, 5 μM, 2 h
# Protocol: Caco-2 Permeability Studies. The Caco-2 plate was removed from the incubator and washed twice with pre-warmed HBSS (10 mM HEPES, pH 7.4), and then incubated at 37° C. for 30 min. The stock solutions of controls compounds were diluted in DMSO to get 1 mM solutions and then diluted with HBSS (10 mM HEPES, pH 7.4) to get 5 μM working solutions. The stock solutions of the test compounds were diluted in DMSO to get 1 mM solutions and then diluted with HBSS (10 mM HEPES, pH 7.4) to get 5 μM working solutions. The final concentration of DMSO in the incubation system was 0.5%. To determine the rate of drug transport in the apical to basolateral direction, 75 μL of 5 μM working solutions of test compounds was added to the Transwell insert (apical compartment) and the wells in the receiver plate (basolateral compartment) were filled with 235 μL of HBSS (10 mM HEPES, pH 7.4). To determine the rate of drug transport in the basolateral to apical direction, 235 μL of 5 μM working solutions of test compounds were to the receiver plate wells (basolateral compartment) and then the Transwell inserts (apical compartment) were filled with 75 μL of HBSS (10 mM HEPES, pH 7.4). Time 0 samples were prepared by transferring 50 μL of 5 μM working solution to wells of the 96-deepwell plate, followed by the addition of 200 μL cold methanol containing appropriate internal standards (IS). The plates were incubated at 37° C. for 2 h. […] An aliquot of 100 μL of the supernatant was mixed with an appropriate volume of ultra-pure water before LC-MS/MS analysis. To determine the Lucifer Yellow leakage after 2 h transport period, stock solution of Lucifer yellow was prepared in ultra-pure water and diluted with HBSS (10 mM HEPES, pH 7.4) to reach the final concentration of 100 μM and then 100 μL of the Lucifer yellow solution was added to each Transwell insert (apical compartment), followed by filling the wells in the receiver plate (basolateral compartment) with 300 μL of HBSS (10 mM HEPES, pH 7.4). The plates were incubated at 37° C. for 30 minutes. Samples (80 μL) were removed directly from the apical and basolateral wells (using the basolateral access holes) and transferred to wells of new 96 wells plates.
# [11] = Brain penetration and plasma/brain pharmacokinetics in combination with Temodar or Lynparza
# Protocol: A similar analysis was performed with LMP744 and LMP400 in combination with Temodar and Lynparza.
# [12] = Lynparza 100 mg/kg PO + LMP400 10 mg/kg IV, 0.5 h
# [13] = Lynparza 100 mg/kg PO + LMP400 10 mg/kg IV, 1 h
# [14] = Lynparza 100 mg/kg PO + LMP400 10 mg/kg IV, 2 h
# [15] = Lynparza 100 mg/kg PO + LMP400 10 mg/kg IV, 4 h
# [16] = Lynparza 100 mg/kg PO + LMP400 10 mg/kg IV, 8 h
# [17] = Lynparza 100 mg/kg PO + LMP400 10 mg/kg IV, 24 h
# [18] = Lynparza 100 mg/kg PO + LMP744 10 mg/kg IV, 0.25 h
# [19] = Lynparza 100 mg/kg PO + LMP744 10 mg/kg IV, 0.5 h
# [20] = Lynparza 100 mg/kg PO + LMP744 10 mg/kg IV, 1 h
# [21] = Lynparza 100 mg/kg PO + LMP744 10 mg/kg IV, 2 h
# [22] = Lynparza 100 mg/kg PO + LMP744 10 mg/kg IV, 4 h
# [23] = Lynparza 100 mg/kg PO + LMP744 10 mg/kg IV, 8 h
# [24] = Lynparza 100 mg/kg PO + LMP744 10 mg/kg IV, 24 h
# [25] = Temador 125 mg/kg PO + LMP400 10 mg/kg IV, 1 h
# [26] = Temador 125 mg/kg PO + LMP400 10 mg/kg IV, 2 h
# [27] = Temador 125 mg/kg PO + LMP400 10 mg/kg IV, 4 h
# [28] = Temador 125 mg/kg PO + LMP400 10 mg/kg IV, 8 h
# [29] = Temador 125 mg/kg PO + LMP400 10 mg/kg IV, 24 h
# [30] = Temador 125 mg/kg PO + LMP744 20 mg/kg IV, 0.25 h
# [31] = Temador 125 mg/kg PO + LMP744 20 mg/kg IV, 0.5 h
# [32] = Temador 125 mg/kg PO + LMP744 20 mg/kg IV, 1 h
# [33] = Temador 125 mg/kg PO + LMP744 20 mg/kg IV, 2 h
# [34] = Temador 125 mg/kg PO + LMP744 20 mg/kg IV, 4 h
# [35] = Temador 125 mg/kg PO + LMP744 20 mg/kg IV, 8 h
# [36] = Temador 125 mg/kg PO + LMP744 20 mg/kg IV, 24 h
structure (smiles),measurement,setting,value
COc1cc2c3c(n(CCCN4CCCCC4)c(=O)c2cc1OC)-c1cc2c(cc1C3=O)OCO2 [A6],GI50,[1],1460 nM
same,GI50,[2],1050 nM
same,GI50,[3],1370 nM
same,GI50,[4],140 nM
same,GI50,[5],1380 nM
same,GI50,[6],1630 nM
same,GI50,[7],420 nM
same,GI50,[8],1050 nM
same,GI50,[9],1610 nM
C[C@H]1O[C@@H](O[C@H]2[C@@H](O)C[C@H](O[C@H]3[C@@H](O)C[C@H](O[C@H]4CC[C@@]5(C)[C@H](CC[C@@H]6[C@@H]5C[C@@H](O)[C@]5(C)[C@@H](C7=CC(=O)OC7)CC[C@]65O)C4)O[C@@H]3C)O[C@@H]2C)C[C@H](O)[C@@H]1O [Digoxin],Efflux Ratio,[10],25.25
same,Recovery (%)AP-BL,[10],88.64%
same,Recovery (%)BL-AP,[10],106.70%
same,Papp (A→B),[10],"0.74 10^−6, cm/s"
same,Papp (B→A),[10],"18.71 10^−6, cm/s"
O=C(c1cc(Cc2n[nH]c(=O)c3ccccc23)ccc1F)N1CCN(C(=O)C2CC2)CC1 [Lynparza],Brain Conc,"[11]; Lynparza 100 mg/kg PO + LMP400 10 mg/kg IV, 0.25 h",0.0131 ± 0.00699 µM
same,Brain Conc,[11]; [12],0.03336 ± 0.01887 µM
same,Plasma Conc,[11]; [12],1.384 ± 0.929 µM
same,Brain Conc,[11]; [13],0.05003 ± 0.00979 µM
same,Plasma Conc,[11]; [13],2.644 ± 0.762 µM
same,Brain Conc,[11]; [14],0.03044 ± 0.01589 µM
same,Plasma Conc,[11]; [14],1.637 ± 1.051 µM
same,Brain Conc,[11]; [15],0.01839 ± 0.00859 µM
same,Plasma Conc,[11]; [15],0.755 ± 0.46 µM
same,Brain Conc,[11]; [16],BLOQ
same,Plasma Conc,[11]; [16],0.166 ± 0.208 µM
same,Brain Conc,[11]; [17],BLOQ
same,Plasma Conc,[11]; [17],BLOQ
same,Brain Conc,[11]; [18],BLOQ
same,Plasma Conc,[11]; [18],0.345 ± 0.101 µM
same,Brain Conc,[11]; [19],0.0121 ± 0.00053 µM
same,Brain/Plasma Conc Ratio,[11]; [19],0.02
same,Plasma Conc,[11]; [19],0.555 ± 0.0934 µM
same,Brain Conc,[11]; [20],0.0141 ± 0.0073 µM
same,Brain/Plasma Conc Ratio,[11]; [20],0.01
same,Plasma Conc,[11]; [20],0.961 ± 0.189 µM
same,Brain Conc,[11]; [21],0.0449 ± 0.02008 µM
same,Plasma Conc,[11]; [21],1.61 ± 0.968 µM
same,Brain Conc,[11]; [22],0.0254 ± 0.00652 µM
same,Plasma Conc,[11]; [22],1.11 ± 0.25 µM
same,Brain Conc,[11]; [23],BLOQ
same,Plasma Conc,[11]; [23],0.314 ± 0.185 µM
same,Brain Conc,[11]; [24],BLOQ
same,Plasma Conc,[11]; [24],BLOQ
same,concentration at 0.25 h,"[11]; mouse, plasma, oral, Plasma Conc, Lynparza 100 mg/kg PO + LMP400 10 mg/kg IV, 0.25 h",0.506 ± 0.423 µM
COc1cc2nc(N3CCN(C(=O)c4ccco4)CC3)nc(N)c2cc1OC [Prazosin],Efflux Ratio,[10],3.39
same,Recovery (%)AP-BL,[10],79.64%
same,Recovery (%)BL-AP,[10],94.99%
same,Papp (A→B),[10],"9.28 10^−6, cm/s"
same,Papp (B→A),[10],"31.47 10^−6, cm/s"
CC(C)NCC(O)COc1cccc2ccccc12 (centres unmarked) [Propranolol],Efflux Ratio,[10],0.70
same,Recovery (%)AP-BL,[10],80.74%
same,Recovery (%)BL-AP,[10],92.73%
same,Papp (A→B),[10],"25.34 10^−6, cm/s"
same,Papp (B→A),[10],"17.63 10^−6, cm/s"
Cn1nnc2c(C(N)=O)ncn2c1=O [Temadar],Plasma Conc,"[11]; Temador 125 mg/kg PO + LMP400 10 mg/kg IV, 0.25 h",311.591 ± 40.73 µM
same,Brain Conc,[11]; [25],102.567 ± 16.241 µM
same,Brain/Plasma Conc Ratio,[11]; [25],0.50
same,Brain/Plasma Conc Ratio,[11]; [26],0.56
same,Plasma Conc,[11]; [26],80.639 ± 5.808 µM
same,Brain Conc,[11]; [27],4.739 ± 0.585 µM
same,Plasma Conc,[11]; [27],10.345 ± 0.724 µM
same,Brain Conc,[11]; [28],1.236 ± 0.654 µM
same,Brain/Plasma Conc Ratio,[11]; [28],0.38
same,Plasma Conc,[11]; [28],3.295 ± 1.528 µM
same,Brain Conc,[11]; [29],0.122 ± 0.004 µM
same,Brain/Plasma Conc Ratio,[11]; [29],0.01
same,Plasma Conc,[11]; [29],10.009 ± 5.943 µM
same,Brain Conc,[11]; [30],123.222 ± 49.748 µM
same,Brain/Plasma Conc Ratio,[11]; [30],0.33
same,Plasma Conc,[11]; [30],376.314 ± 182.744 µM
same,Brain Conc,[11]; [31],83.539 ± 43.505 µM
same,Brain/Plasma Conc Ratio,[11]; [31],0.23
same,Plasma Conc,[11]; [31],370.863 ± 119.965 µM
same,Brain/Plasma Conc Ratio,[11]; [32],0.46
same,Plasma Conc,[11]; [32],357.779 ± 86.447 µM
same,Brain Conc,[11]; [33],96.544 ± 15.254 µM
same,Brain/Plasma Conc Ratio,[11]; [33],0.15
same,Brain Conc,[11]; [34],12.75 ± 2.849 µM
same,Brain/Plasma Conc Ratio,[11]; [34],0.47
same,Plasma Conc,[11]; [34],27.155 ± 4.732 µM
same,Brain Conc,[11]; [35],5.765 ± 3.855 µM
same,Brain/Plasma Conc Ratio,[11]; [35],0.57
same,Plasma Conc,[11]; [35],10.048 ± 6.715 µM
same,Brain Conc,[11]; [36],0.914 ± 0.532 µM
same,Brain/Plasma Conc Ratio,[11]; [36],0.60
same,concentration at 0.25 h,"[11]; mouse, brain, oral, Brain Conc, Temador 125 mg/kg PO + LMP400 10 mg/kg IV, 0.25 h",86.6 ± 10.4 µM
same,concentration at 0.5 h,"[11]; mouse, brain, oral, Brain Conc, Temador 125 mg/kg PO + LMP400 10 mg/kg IV, 0.5 h",47.4 ± 24.5 µM
same,concentration at 1 h,"[11]; mouse, brain, oral, Brain Conc, Temador 125 mg/kg PO + LMP744 20 mg/kg IV, 1 h",154 ± 38.8 µM
same,concentration at 0.5 h,"[11]; mouse, plasma, oral, Plasma Conc, Temador 125 mg/kg PO + LMP400 10 mg/kg IV, 0.5 h",389 ± 66 µM
same,concentration at 1 h,"[11]; mouse, plasma, oral, Plasma Conc, Temador 125 mg/kg PO + LMP400 10 mg/kg IV, 1 h",205 ± 27.3 µM
same,concentration at 2 h,"[11]; mouse, plasma, oral, Plasma Conc, Temador 125 mg/kg PO + LMP744 20 mg/kg IV, 2 h",552 ± 309 µM
same,concentration at 24 h,"[11]; mouse, plasma, oral, Plasma Conc, Temador 125 mg/kg PO + LMP744 20 mg/kg IV, 24 h",1.58 ± 0.509 µM
